From patent publication US20230192691A1, “HETEROCYCLIC COMPOUNDS AS BTK INHIBITORS” (Beijing InnoCare Pharma Tech Co., Ltd., priority 2020, published 2023)

How the values were obtained:
[1] = molecular target: T1, human-derived recombinant BTK protein (Homo sapiens, UniProt Q06187); test: BTK activity inhibition assay (HTRF in vitro kinase assay); type: biochemical; details: 40 μM ATP, 0.2 ng/μL BTK
T1 construct: purchased Carna Biosciences 08-180
Description: In vitro kinase assay was used to evaluate the effects of compounds of the present invention on BTK activity (Table 1).
(§1) By using the homogeneous time-resolved fluorescence (HTRF) kinase detection kit (Cisbio, catalog number 62TK0PEC), the enzymatic activity of BTK is determined by detecting the phosphorylation level of the substrate in the kinase reaction. The reaction buffer contains the enzyme reaction buffer (1×) from the kit, 5 mM MgCl2, 1 mM DTT, 10 nM SEB and 0.01% Tween-20; the kinase reaction solution contains human-derived recombinant BTK protein (Carna Biosciences, Catalog No. 08-180) diluted to 0.2 ng/μL with the reaction buffer; the substrate reaction solution contains biotin-labeled tyrosine kinase substrate diluted to 0.5 μM with the reaction buffer and 40 μM ATP; the detection buffer contains Eu^3+-labeled cage antibody diluted to 0.05 ng/μL and streptavidin-labeled XL665 antibody diluted to 31.25 nM with the reaction buffer; the test compound is dissolved and diluted to 100 μM with DMSO, followed by a 4-fold serial dilution with DMSO to the lowest concentration of 6.1 nM and finally 40-time dilution with the reaction buffer for each concentration point. If the IC50 value of the compound is very low, the initial concentration of the compound is reduced.
(§2) Add 4 μL test compound solution and 2 μL kinase reaction solution to a 384-well detection plate (Corning, catalog number 3674), mix well and incubate at room temperature for 15 minutes; add 4 μL substrate reaction solution and incubate for 50 minutes; add 10 μL detection buffer, mix well and stand for 60 minutes; detect signal at 620 nm and 665 nm using an Envision plate reader (Perkin Elmer). The signal value (absorbance at 665 nm/absorbance at 620 nm) is positively correlated with the degree of phosphorylation of the substrate, thereby detecting the kinase activity of BTK. In this experiment, the group without BTK is the negative control (100% inhibition) and the group with BTK but no compound is the positive control (0% inhibition). The inhibition curve is plotted and the corresponding IC50 value of the test compound is calculated using XLfit software (ID Business Solutions Ltd., UK).

[2] = molecular target: T2, human recombinant BTK C481S protein (Homo sapiens, UniProt Q06187, C481S); test: BTK C481S activity inhibition assay (HTRF in vitro kinase assay); type: biochemical; details: 35 μM ATP, 1.5 ng/μL BTK C481S
T2 construct: made in house
Description: In vitro kinase assay was used to evaluate the effects of compounds of the present invention on BTK C481S activity (Table 1).
as §1, with “BTK C481S” for “BTK”, “nM SEB,” for “nM SEB”, “contains human” for “contains human-derived”, “protein (purified in-house)” for “protein (Carna Biosciences, Catalog No. 08-180)”, “to 1.5” for “to 0.2”, “and 35” for “and 40”
as §2, with “activity of BTK C481S. In this” for “activity of BTK. In this”, “with BTK C481 S but no” for “with BTK but no”, “XLfit software (TD Business Solutions” for “XLfit software (ID Business Solutions”

T2 sequence (Q06187 whole entry C481S): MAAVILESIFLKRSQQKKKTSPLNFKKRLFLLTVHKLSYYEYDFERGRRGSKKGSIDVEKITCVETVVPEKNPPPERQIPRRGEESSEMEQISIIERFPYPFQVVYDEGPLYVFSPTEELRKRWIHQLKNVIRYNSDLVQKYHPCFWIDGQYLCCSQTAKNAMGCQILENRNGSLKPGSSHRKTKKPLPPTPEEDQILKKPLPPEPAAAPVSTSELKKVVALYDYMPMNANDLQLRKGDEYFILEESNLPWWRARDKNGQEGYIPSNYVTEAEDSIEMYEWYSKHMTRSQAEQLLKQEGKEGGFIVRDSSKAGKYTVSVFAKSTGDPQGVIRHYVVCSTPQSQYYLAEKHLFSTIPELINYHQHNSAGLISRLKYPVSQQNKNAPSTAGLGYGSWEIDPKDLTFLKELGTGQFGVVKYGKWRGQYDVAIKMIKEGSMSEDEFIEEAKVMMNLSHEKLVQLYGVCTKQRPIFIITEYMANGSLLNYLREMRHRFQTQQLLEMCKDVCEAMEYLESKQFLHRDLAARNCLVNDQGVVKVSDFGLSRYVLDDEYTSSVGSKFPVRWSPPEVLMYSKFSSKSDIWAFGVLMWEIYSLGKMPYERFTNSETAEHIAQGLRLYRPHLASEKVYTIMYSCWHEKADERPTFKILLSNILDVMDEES
T1 sequence (Q06187 whole entry): as the sequence (Q06187 whole entry C481S) above, with S481C counted along it

Row | Structure (SMILES) | IC50 [1] [nM] | IC50 [2] [nM]
1 | COc1ccc(F)cc1C(=O)NCc1ccc(-c2nc([C@@H]3CCN(C(=O)C4CC4)C3)n3ncnc(N)c23)cc1 [Compound 24, (R)-N-(4-(4-amino-7-(1-(cyclopropanecarbonyl)pyrrolidin-3-yl)imidazo[5,1-f][1,2,4]triazin-5-yl)benzyl)-5-fluoro-2-methoxybenzamide] | 3.9 | 2.5
2 | [2H]C([2H])([2H])Oc1ccc(F)cc1C(=O)NCc1ccc(-c2nc(C3CCCOC3)n3ccnc(N)c23)cc1 (centres unmarked) [Compound 25, N-(4-(8-amino-3-(tetrahydro-2H-pyran-3-yl)imidazo[1,5-a]pyrazin-1-yl)benzyl)-5-fluoro-2-(methoxy-dz)benzamide] | 1.1 | 1.5
3 | COc1ccc(F)cc1C(=O)NCc1ccc(-c2nc(C(C)C(F)(F)F)n3ncnc(N)c23)cc1 (centres unmarked) [Compound 26, N-(4-(4-amino-7-(1,1,1-trifluoropropan-2-yl)imidazo[5,1-f][1,2,4]triazin-5-yl)benzyl)-5-fluoro-2-methoxybenzamide] | 3.8 | 11
4 | COc1ccc(F)cc1C(=O)NCc1ccc(-c2nc(N3CCC(C)(C(=O)O)CC3)n3ccnc(N)c23)cc1 [Compound 27, 1-(8-amino-1-(4-((5-fluoro-2-methoxybenzamido)methyl)phenyl)imidazo[1,5-a]pyrazin-3-yl)-4-methylpiperidine-4-carboxylic acid] | 2.7 | 1.3
5 | COC(=O)C12CCC(c3nc(-c4ccc(CNC(=O)c5cc(F)ccc5OC)cc4)c4c(N)ncnn34)(CC1)CC2 [Compound 28, methyl 4-(4-amino-5-(4-((5-fluoro-2-methoxybenzamido)methyl)phenyl)imidazo[5,1-f][1,2,4]triazin-7-yl)bicyclo[2.2.2]octane-1-carboxylate] | 1 | 2.2
6 | COC(=O)C12CC(c3nc(-c4ccc(CNC(=O)c5cc(F)ccc5OC)cc4)c4c(N)ncnn34)(C1)C2 [Compound 29, methyl 3-(4-amino-5-(4-((5-fluoro-2-methoxybenzamido)methyl)phenyl)imidazo[5,1-f][1,2,4]triazin-7-yl)bicyclo[1.1.1]pentane-1-carboxylate] | 1.2 | 2.1
7 | COc1ccc(F)cc1C(=O)NCc1ccc(-c2nc([C@]3(C)CC[C@@](C)(C(=O)O)CC3)n3ccnc(N)c23)cc1 [Compound 32, (1r,4r)-4-(8-amino-1-(4-((5-fluoro-2-methoxybenzamido)methyl)phenyl)imidazo[1,5-a]pyrazin-3-yl)-1,4-dimethylcyclohexane-1-carboxylic acid] | 2.4 | 6.3
8 | COc1ccc(F)cc1C(=O)NCc1ccc(-c2nc(C34CCC(C(=O)N5CCOCC5)(CC3)CC4)n3ccnc(N)c23)cc1 [Compound 37, N-(4-(8-amino-3-(4-(morpholine-4-carbonyl)bicyclo[2.2.2]octan-1-yl)imidazo[1,5-a]pyrazin-1-yl)benzyl)-5-fluoro-2-methoxybenzamide] | 1.3 | 1.9
9 | COC(=O)C12CCC(c3nc(-c4ccc(CNC(=O)c5cc(F)ccc5OC)cc4)c4c(N)nccn34)(CC1)C2 [Compound 38, methyl 4-(8-amino-1-(4-((5-fluoro-2-methoxybenzamido)methyl)phenyl)imidazo[1,5-a]pyrazin-3-yl)bicyclo[2.2.1]heptane-1-carboxylate] | 2.9 | 2.1
10 | COc1ccc(F)cc1C(=O)NCc1ccc(-c2nc([C@]3(C)CC[C@](C)(C(=O)OC)CC3)n3ccnc(N)c23)cc1 [Compound 39, methyl (1s,4s)-4-(8-amino-1-(4-((5-fluoro-2-methoxybenzamido)methyl)phenyl)imidazo[1,5-a]pyrazin-3-yl)-1,4-dimethylcyclohexane-1-carboxylate] | 3.3 | 0.6
11 | COc1ccc(F)cc1C(=O)NCc1ccc(-c2nc([C@]3(C)CC[C@](C)(C(=O)O)CC3)n3ccnc(N)c23)cc1 [Compound 41, (1s,4s)-4-(8-amino-1-(4-((5-fluoro-2-methoxybenzamido)methyl)phenyl)imidazo[1,5-a]pyrazin-3-yl)-1,4-dimethylcyclohexane-1-carboxylic acid] | 2.6 | 5.3
12 | COc1ccc(F)cc1C(=O)NCc1ccc(-c2nc(C3(C(F)(F)F)CC3)n3ccnc(N)c23)cc1 [Compound 42, N-(4-(8-amino-3-(1-(trifluoromethyl)cyclopropyl)imidazo[1,5-a]pyrazin-1-yl)benzyl)-5-fluoro-2-methoxybenzamide] | 1.7 | 4.3

Second part, the compound after the results:

Row | IC50 [1] [nM] | IC50 [2] [nM] | Structure (SMILES)
13 | 1 | 3 | CNC(=O)[C@H]1CC[C@H](c2nc(-c3ccc(CNC(=O)c4cc(F)ccc4OC)cc3)c3c(N)nccn32)CC1 [Compound 23, N-(4-(8-amino-3-((1r,4r)-4-(methylcarbamoyl)cyclohexyl)imidazo[1,5-a]pyrazin-1-yl)benzyl)-5-fluoro-2-methoxybenzamide]
14 | 0.6 | 3 | COc1ccc(F)cc1C(=O)NCc1ccc(-c2nc(C34CC(C(=O)O)(C3)C4)n3ncnc(N)c23)cc1 [Compound 31, 3-(4-amino-5-(4-((5-fluoro-2-methoxybenzamido)methyl)phenyl)imidazo[5,1-f][1,2,4]triazin-7-yl)bicyclo[1.1.1]pentane-1-carboxylic acid]
15 | 0.8 | 1.8 | COC(=O)C12CCC(c3nc(-c4ccc(CNC(=O)c5cc(F)ccc5OC)cc4)c4c(N)nccn34)(CC1)CC2 [Compound 33, methyl 4-(8-amino-1-(4-((5-fluoro-2-methoxybenzamido)methyl)phenyl)imidazo[1,5-a]pyrazin-3-yl)bicyclo[2.2.2]octane-1-carboxylate]
16 | 0.9 | 1.5 | COc1ccc(F)cc1C(=O)NCc1ccc(-c2nc(C34CCC(C(=O)O)(CC3)CC4)n3ccnc(N)c23)cc1 [Compound 34, 4-(8-amino-1-(4-((5-fluoro-2-methoxybenzamido)methyl)phenyl)imidazo[1,5-a]pyrazin-3-yl)bicyclo[2.2.2]octane-1-carboxylic acid]
17 | 0.6 | 1.5 | COc1ccc(F)cc1C(=O)NCc1ccc(-c2nc(C34CCC(CO)(CC3)CC4)n3ccnc(N)c23)cc1 [Compound 35, N-(4-(8-amino-3-(4-(hydroxymethyl)bicyclo[2.2.2]octan-1-yl)imidazo[1,5-a]pyrazin-1-yl)benzyl)-5-fluoro-2-methoxybenzamide]
18 | 0.9 | 3.4 | CNC(=O)C12CCC(c3nc(-c4ccc(CNC(=O)c5cc(F)ccc5OC)cc4)c4c(N)nccn34)(CC1)CC2 [Compound 36, 4-(8-amino-1-(4-((5-fluoro-2-methoxybenzamido)methyl)phenyl)imidazo[1,5-a]pyrazin-3-yl)-N-methylbicyclo[2.2.2]octane-1-carboxamide]
19 | 0.4 | 1.1 | COc1ccc(F)cc1C(=O)NCc1ccc(-c2nc(C34CCC(C(=O)O)(CC3)C4)n3ccnc(N)c23)cc1 [Compound 40, 4-(8-amino-1-(4-((5-fluoro-2-methoxybenzamido)methyl)phenyl)imidazo[1,5-a]pyrazin-3-yl)bicyclo[2.2.1]heptane-1-carboxylic acid]
